Row | SMILES | melting point [°C]
1 | C=CCn1nc(-c2sc(C(N)=O)nc2-c2ccccc2)ccc1=O [Example 162, 5-(1-Allyl-6-oxo-1,6-dihydro-3-pyridazinyl)-4-phenyl-1,3-thiazole-2-carboxamide] | 198 to 199.5
2 | CC(C)n1nc(-c2sc(C(N)=O)nc2-c2ccccc2F)ccc1=O [Example 163, 4-(2-Fluorophenyl)-5-(1-isopropyl-6-oxo-1,6-dihydro-3-pyridazinyl)-1,3-thiazole-2-carboxamide] | 213 to 215
3 | CC(C)n1nc(-c2sc(C(N)=O)nc2-c2cccc(F)c2)ccc1=O [Example 164, 4-(3-Fluorophenyl)-5-(1-isopropyl-6-oxo-1,6-dihydro-3-pyridazinyl)-1,3-thiazole-2-carboxamide] | 248 to 250
4 | CC(C)n1nc(-c2sc(C(N)=O)nc2-c2ccc(F)cc2)ccc1=O [Example 165, 4-(4-Fluorophenyl)-5-(1-isopropyl-6-oxo-1,6-dihydro-3-pyridazinyl)-1,3-thiazole-2-carboxamide] | 226.5 to 227.5
5 | CC(C)n1nc(-c2sc(C(N)=O)nc2-c2cccc(Cl)c2)ccc1=O [Example 166, 4-(3-Chlorophenyl)-5-(1-isopropyl-6-oxo-1,6-dihydro-3-pyridazinyl)-1,3-thiazole-2-carboxamide] | 232 to 234.5
6 | CCCn1nc(-c2sc(C(N)=O)nc2-c2ccccc2)ccc1=O [Example 167, 5-(6-oxo-1-propyl-1,6-dihydro-3-pyridazinyl)-4-phenyl-1,3-thiazole-2-carboxamide] | 201 to 202
7 | COCCn1nc(-c2sc(C(N)=O)nc2-c2ccccc2)ccc1=O [Example 168, 5-[1-(2-Methoxyethyl)-6-oxo-1,6-dihydro-3-pyridazinyl]-4-phenyl-1,3-thiazole-2-carboxamide] | 198 to 199.5
8 | CCCNC(=O)c1nc(-c2ccccc2)c(-c2ccc(=O)[nH]n2)s1 [Example 169, 5-(6-oxo-1,6-dihydro-3-pyridazinyl)-4-phenyl-N-propyl-1,3-thiazole-2-carboxamide] | 232 to 233
9 | CCCNC(=O)c1nc(-c2ccccc2)c(-c2ccc(=O)n(C)n2)s1 [Example 170, 5-(1-methyl-6-oxo-1,6-dihydro-3-pyridazinyl)-4-phenyl-N-propyl-1,3-thiazole-2-carboxamide] | 108 to 109
10 | CCCNC(=O)c1nc(-c2ccccc2)c(-c2ccc(=O)n(CC)n2)s1 [Example 171, 5-(1-ethyl-6-oxo-1,6-dihydro-3-pyridazinyl)-4-phenyl-N-propyl-1,3-thiazole-2-carboxamide] | 106.5 to 107.5
11 | CCCNC(=O)c1nc(-c2ccccc2)c(-c2ccc(=O)n(CCC)n2)s1 [Example 172, 5-(6-oxo-1-propyl-1,6-dihydro-3-pyridazinyl)-4-phenyl-N-propyl-1,3-thiazole-2-carboxamide] | 121 to 122
12 | CCCNC(=O)c1nc(-c2ccccc2)c(-c2ccc(=O)n(C(C)C)n2)s1 [Example 173, 5-(1-isopropyl-6-oxo-1,6-dihydro-3-pyridazinyl)-4-phenyl-N-propyl-1,3-thiazole-2-carboxamide] | 141 to 142
13 | CCCNC(=O)c1nc(-c2ccccc2)c(-c2ccc(=O)n(Cc3ccccc3)n2)s1 [Example 174, 5-(1-benzyl-6-oxo-1,6-dihydro-3-pyridazinyl)-4-phenyl-N-propyl-1,3-thiazole-2-carboxamide] | 120 to 121
14 | CCCNC(=O)c1nc(-c2ccc(F)cc2)c(-c2ccc(=O)n(C(C)C)n2)s1 [Example 175, 4-(4-fluorophenyl)-5-(1-isopropyl-6-oxo-1,6-dihydro-3-pyridazinyl)-N-propyl-1,3-thiazole-2-carboxamide] | 146.5 to 147.5
15 | CC(C)NC(=O)c1nc(-c2ccccc2)c(-c2ccc(=O)[nH]n2)s1 [Example 176, N-isopropyl-5-(6-oxo-1,6-dihydro-3-pyridazinyl)-4-phenyl-1,3-thiazole-2-carboxamide] | > 250
16 | CC(C)NC(=O)c1nc(-c2ccccc2)c(-c2ccc(=O)n(C)n2)s1 [Example 177, N-isopropyl-5-(1-methyl-6-oxo-1,6-dihydro-3-pyridazinyl)-4-phenyl-1,3-thiazole-2-carboxamide] | 154 to 154.5
17 | CCn1nc(-c2sc(C(=O)NC(C)C)nc2-c2ccccc2)ccc1=O [Example 178, 5-(1-ethyl-6-oxo-1,6-dihydro-3-pyridazinyl)-N-isopropyl-4-phenyl-1,3-thiazole-2-carboxamide] | 152.5 to 153
18 | CCCn1nc(-c2sc(C(=O)NC(C)C)nc2-c2ccccc2)ccc1=O [Example 179, N-isopropyl-5-(6-oxo-1-propyl-1,6-dihydro-3-pyridazinyl)-4-phenyl-1,3-thiazole-2-carboxamide] | 146.5 to 147.5
19 | CC(C)NC(=O)c1nc(-c2ccccc2)c(-c2ccc(=O)n(C(C)C)n2)s1 [Example 180, N-isopropyl-5-(1-isopropyl-6-oxo-1,6-dihydro-3-pyridazinyl)-4-phenyl-1,3-thiazole-2-carboxamide] | 131 to 132.5

Row | SMILES | melting point [°C]
20 | C=CCn1nc(-c2sc(C(=O)NC(C)C)nc2-c2ccccc2)ccc1=O [Example 181, 5-(1-allyl-6-oxo-1,6-dihydro-3-pyridazinyl)-N-isopropyl-4-phenyl-1,3-thiazole-2-carboxamide] | 166 to 167
21 | CC(C)NC(=O)c1nc(-c2ccccc2)c(-c2ccc(=O)n(Cc3ccccc3)n2)s1 [Example 182, 5-(1-benzyl-6-oxo-1,6-dihydro-3-pyridazinyl)-N-isopropyl-4-phenyl-1,3-thiazole-2-carboxamide] | 163.5 to 165
22 | COCCn1nc(-c2sc(C(=O)NC(C)C)nc2-c2ccccc2)ccc1=O [Example 183, N-isopropyl-5-[1-(2-methoxyethyl)-6-oxo-1,6-dihydro-3-pyridazinyl]-4-phenyl-1,3-thiazole-2-carboxamide] | 172 to 172.5
23 | CC(C)NC(=O)c1nc(-c2ccccc2F)c(-c2ccc(=O)n(C(C)C)n2)s1 [Example 184, 4-(2-fluorophenyl)-N-isopropyl-5-(1-isopropyl-6-oxo-1,6-dihydro-3-pyridazinyl)-1,3-thiazole-2-carboxamide] | 129 to 130.5
24 | CC(C)NC(=O)c1nc(-c2cccc(F)c2)c(-c2ccc(=O)n(C(C)C)n2)s1 [Example 185, 4-(3-fluorophenyl)-N-isopropyl-5-(1-isopropyl-6-oxo-1,6-dihydro-3-pyridazinyl)-1,3-thiazole-2-carboxamide] | 103.5 to 105.5
25 | CC(C)NC(=O)c1nc(-c2ccc(F)cc2)c(-c2ccc(=O)n(C(C)C)n2)s1 [Example 186, 4-(4-fluorophenyl)-N-isopropyl-5-(1-isopropyl-6-oxo-1,6-dihydro-3-pyridazinyl)-1,3-thiazole-2-carboxamide] | 122 to 123.5
26 | CC(C)NC(=O)c1nc(-c2cccc(Cl)c2)c(-c2ccc(=O)n(C(C)C)n2)s1 [Example 187, 4-(3-chlorophenyl)-N-isopropyl-5-(1-isopropyl-6-oxo-1,6-dihydro-3-pyridazinyl)-1,3-thiazole-2-carboxamide] | 105 to 106
27 | O=C(NC1CC1)c1nc(-c2ccccc2)c(-c2ccc(=O)[nH]n2)s1 [Example 188, N-cyclopropyl-5-(6-oxo-1,6-dihydro-3-pyridazinyl)-4-phenyl-1,3-thiazole-2-carboxamide] | > 250
28 | Cn1nc(-c2sc(C(=O)NC3CC3)nc2-c2ccccc2)ccc1=O [Example 189, N-cyclopropyl-5-(1-methyl-6-oxo-1,6-dihydro-3-pyridazinyl)-4-phenyl-1,3-thiazole-2-carboxamide] | 163 to 164
29 | CCn1nc(-c2sc(C(=O)NC3CC3)nc2-c2ccccc2)ccc1=O [Example 190, N-cyclopropyl-5-(1-ethyl-6-oxo-1,6-dihydro-3-pyridazinyl)-4-phenyl-1,3-thiazole-2-carboxamide] | 144 to 145
30 | CCCn1nc(-c2sc(C(=O)NC3CC3)nc2-c2ccccc2)ccc1=O [Example 191, N-cyclopropyl-5-(6-oxo-1-propyl-1,6-dihydro-3-pyridazinyl)-4-phenyl-1,3-thiazole-2-carboxamide] | 146 to 147
31 | CC(C)n1nc(-c2sc(C(=O)NC3CC3)nc2-c2ccccc2)ccc1=O [Example 192, N-cyclopropyl-5-(1-isopropyl-6-oxo-1,6-dihydro-3-pyridazinyl)-4-phenyl-1,3-thiazole-2-carboxamide] | 127 to 128
32 | C=CCn1nc([SH]2C=C(c3ccccc3)N=C2C(=O)NC2CC2)ccc1=O (stereo not drawn) [Example 193, S-(1-allyl-6-oxo-1,6-dihydro-3-pyridazinyl)-N-cyclopropyl-4-phenyl-1,3-thiazole-2-carboxamide] | 167.5 to 168.5
33 | O=C(NC1CC1)c1nc(-c2ccccc2)c(-c2ccc(=O)n(Cc3ccccc3)n2)s1 [Example 194, 5-(1-benzyl-6-oxo-1,6-dihydro-3-pyridazinyl)-N-cyclopropyl-4-phenyl-1,3-thiazole-2-carboxamide] | 151 to 152.5
34 | CC(C)n1nc(-c2sc(C(=O)NC3CC3)nc2-c2ccccc2F)ccc1=O [Example 196, N-cyclopropyl-4-(2-fluorophenyl)-5-(1-isopropyl-6-oxo-1,6-dihydro-3-pyridazinyl)-1,3-thiazole-2-carboxamide] | 133.5 to 135
35 | CC(C)n1nc(-c2sc(C(=O)NC3CC3)nc2-c2cccc(F)c2)ccc1=O [Example 197, N-cyclopropyl-4-(3-fluorophenyl)-5-(1-isopropyl-6-oxo-1,6-dihydro-3-pyridazinyl)-1,3-thiazole-2-carboxamide] | 145.5 to 147
36 | CC(C)n1nc(-c2sc(C(=O)NC3CC3)nc2-c2ccc(F)cc2)ccc1=O [Example 198, N-cyclopropyl-4-(4-fluorophenyl)-5-(1-isopropyl-6-oxo-1,6-dihydro-3-pyridazinyl)-1,3-thiazole-2-carboxamide] | 157 to 158
37 | CC(C)n1nc(-c2sc(C(=O)NC3CC3)nc2-c2cccc(Cl)c2)ccc1=O [Example 199, 4-(3-chlorophenyl)-N-cyclopropyl-5-(1-isopropyl-6-oxo-1,6-dihydro-3-pyridazinyl)-1,3-thiazole-2-carboxamide] | 118.5 to 119.5

Source: patent publication US20050004134A1, “Thiazole derivative and pharmaceutical use thereof” (priority 2001, published 2005)
